Laboratory results from patent US8685919B2 (Zealand Pharma A/S, priority 2008, dated 2014).
Entries after “also recorded” stand apart in the source; their conditions may differ. Where two headings read alike, the source gives them in different places. Values belong to the compound of their own block, whether it stands above or below them. Peptide text beside a SMILES is read from it.

Legend:
human GLP-1-R = target: T1, human GLP-1-R (Homo sapiens, UniProt P43220); experiment: GLP-1-receptor efficacy assay (cAMP in HEK293 cells); assay type: cell-based
T1 construct: expressed in transfected cells
Method: The 5′-end primers additionally encoded a near Kozak consensus sequence to ensure efficient translation.
48 hr after transfection cells were seeded for limited dilution cloning and selected with 1 mg/ml G418 in the culture medium.
On the day of analysis, growth medium was removed and the cells washed once with 200 μl Tyrode buffer. Cells were incubated in 100 μl Tyrode buffer containing increasing concentrations of test peptides, 100 μM IBMX, and 6 mM glucose for 15 min at 37° C. The reaction was stopped by addition of 25 μl 0.5 M HCl and incubated on ice for 60 min. The cAMP content was estimated using the FlashPlate® cAMP kit from Perkin-Elmer.

[1] = test system: primary rat adipocyte cultures; assay type: cell-based
Method: Adipocytes were isolated from epididymal fat dissected from normal young adult Sprague-Dawley rats. The fat lumps were minced, incubated and shaken (220 rpm) with collagenase (1 mg/ml) in Krebs-Ringer buffer containing 4% BSA (KRB-BSA) for 60 minutes at 37° C. The suspension was filtered through a nylon filter (160 μm pore size) and the filtrate centrifuged at 200×g for 3 min. The subjacent medium beneath the upper floating layer of adipocytes was removed with a Pasteur-pipette. The adipocytes were washed 3 times in KRB-BSA buffer by re-suspension and centrifugation. The adipocytes were re-suspended in KRB-BSA, mixed, incubated in and shaken with test compounds in 96-deep well plates (50,000 cells/well) in a total volume of 1 ml at 37° C. for 60 min. The plates were placed on ice for at least 10 min after incubation followed by centrifugation at 200×g for 3 min. 300 μl of the buffer beneath the adipocyte layer were collected in a 96-deep well plate. This process was repeated two more times and the 3 extracts collected from each culture pooled together.

db/db mice = experiment: Oral glucose tolerance test (OGTT) in db/db mice; assay type: in vivo; conditions: 45 nmol/kg i.p.
Method: Db/db mice were fasted overnight and an initial blood sample (fasting blood glucose level) taken just before administration (i.p.) of vehicle (Acetate buffer, 20 mM acetic acid, 250 mM mannitol, pH 5.0) or the test compound ZP2669 (SEQ ID NO: 4) (45 nmol/kg in acetate buffer). The animals were kept fasted during the experiment to prevent confounding food intake. Fifteen minutes later an oral dose of glucose (1 g/kg in 5 ml/kg) was given and BG levels were measured at t=30 min, t=60 min, t=120 min and t=240 min.
Difference from baseline (t=0) was calculated for each time point and AUC0-240 min values were determined. Statistical analyses of AUC values by one-way ANOVA and Dunnetts post-hoc analyses were performed with GraphPad Prism version 4. Differences were considered significant at the p<0.05 level.

C57BI/6 mice = experiment: Food intake in normal mice; assay type: in vivo; conditions: fasted mice, s.c.; PYY3-36 30 nmol/kg, glucagon 500 nmol/kg, ZP2669 500 nmol/kg
Source text: Differences were considered significant at the p<0.05 level.

[2] = test system: diet induced obese (DIO) mice; experiment: 28 day treatment of diet induced obese (DIO) mice: body weight gain; assay type: in vivo
Method: Four weeks before drug treatments, C57BI/6 male mice (7 weeks)) (N=10-12 animals in each group) were put on high fat diet (HFD) and their day-night cycle reversed with lights On/Off at 2000/0800 hour. Experimental animals were conditioned to treatment by daily injections (s.c.) of 0.1 ml vehicle and acclimatized to handling by weighing them twice a week one week before start of drug administrations. The day before start of experiment, mice were stratified into groups with similar body weight (BW) and the next day groups of stratified mice were treated (b.i.d.; s.c.) with ZP2669 (SEQ ID NO: 4) (500 nmol/kg) or vehicle (Acetate-buffer). ZP2669 (SEQ ID NO: 4) was given in isotonic acetate buffer (pH 4.8; 2.5 μl/g BW). […] Body weights were recorded daily and used to administer the body weight-corrected doses of peptide throughout the study. […] Blood plasma samples were stored at −80° C. until analyzed for cholesterol, HDL and LDL using commercially available kits. Body weight gains throughout the treatment period were calculated for each animal by subtracting its weight at the initiation of treatment.
The effects of treatment on body weight gain and cholesterols were assessed by 2-way ANOVA with repeated measures and Bonferoni post-hoc analyses, using GraphPad Prism version 4. […]

[3] = test system: diet induced obese (DIO) mice; experiment: 28 day treatment of DIO mice: plasma cholesterols (cholesterol, HDL, LDL); assay type: in vivo; conditions: DIO mice treated 4 weeks b.i.d., compared to vehicle
Method: Four weeks before drug treatments, C57BI/6 male mice (7 weeks)) (N=10-12 animals in each group) were put on high fat diet (HFD) and their day-night cycle reversed with lights On/Off at 2000/0800 hour. Experimental animals were conditioned to treatment by daily injections (s.c.) of 0.1 ml vehicle and acclimatized to handling by weighing them twice a week one week before start of drug administrations. […] A non-obese control group maintained on regular chow was treated with vehicle in the same treatment regime as the DIO groups. Body weights were recorded daily and used to administer the body weight-corrected doses of peptide throughout the study. Animals were fasted overnight before sacrifice. An eye blood sample (0.6 ml EDTA) was obtained the following morning immediately before cervical dislocation. Blood plasma samples were stored at −80° C. until analyzed for cholesterol, HDL and LDL using commercially available kits. Body weight gains throughout the treatment period were calculated for each animal by subtracting its weight at the initiation of treatment.
The effects of treatment on body weight gain and cholesterols were assessed by 2-way ANOVA with repeated measures and Bonferoni post-hoc analyses, using GraphPad Prism version 4. Differences were considered significant at the p<0.05 level.

T1 sequence (P43220 24-463): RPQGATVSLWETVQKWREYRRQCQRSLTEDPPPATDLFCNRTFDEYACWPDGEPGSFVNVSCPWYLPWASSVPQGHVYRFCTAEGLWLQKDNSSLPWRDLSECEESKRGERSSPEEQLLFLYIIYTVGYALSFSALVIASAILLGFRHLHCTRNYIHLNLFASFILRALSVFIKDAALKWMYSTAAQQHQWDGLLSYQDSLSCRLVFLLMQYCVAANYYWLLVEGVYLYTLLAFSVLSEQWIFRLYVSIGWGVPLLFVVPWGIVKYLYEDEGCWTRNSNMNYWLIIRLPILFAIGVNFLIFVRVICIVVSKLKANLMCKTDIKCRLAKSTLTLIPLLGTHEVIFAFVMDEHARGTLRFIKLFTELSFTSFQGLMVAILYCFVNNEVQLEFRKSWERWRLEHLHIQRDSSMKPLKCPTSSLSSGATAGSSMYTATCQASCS

Compound: CC(C)C[C@H](NC(=O)[C@H](CC(C)C)NC(=O)[C@H](Cc1c[nH]c2ccccc12)NC(=O)[C@H](CCC(N)=O)NC(=O)[C@@H](NC(=O)[C@H](Cc1ccccc1)NC(=O)[C@H](CC(=O)O)NC(=O)[C@H](Cc1c[nH]cn1)NC(=O)[C@H](C)NC(=O)[C@H](C)NC(=O)[C@H](CCCCN)NC(=O)[C@H](CO)NC(=O)[C@H](CC(=O)O)NC(=O)[C@H](CC(C)C)NC(=O)[C@H](Cc1ccc(O)cc1)NC(=O)[C@H](CCCCN)NC(=O)[C@H](CO)NC(=O)[C@H](Cc1ccc(O)cc1)NC(=O)[C@H](CC(=O)O)NC(=O)[C@H](CO)NC(=O)[C@@H](NC(=O)[C@H](Cc1ccccc1)NC(=O)[C@@H](NC(=O)CNC(=O)[C@H](CCC(N)=O)NC(=O)[C@H](CO)NC(=O)[C@@H](N)Cc1c[nH]cn1)[C@@H](C)O)[C@@H](C)O)C(C)C)C(=O)N[C@@H](CCCNC(=N)N)C(=O)N[C@@H](C)C(N)=O [Compound L006-0172] (H-HSQGTFTSDYSKYLDSKAAHDFVQWLLRA-NH2)
EC50 (human GLP-1-R; read-out: GLP-1R EC50 (nM), crude peptides marked *): 21 nM

Compound: Exendin-4 [reference compound]
GLP-1R agonism (human GLP-1-R; result in words): very potent GLP-1R agonist
Effect on lipolysis ([1]; primary adipocyte cultures, result in words): no effect
Stimulation of lipolysis EC50 (nM) ([1]; primary rat adipocyte cultures, 60 min at 37° C.): No effect

Compound: PYY(3-36): internal positive control in the food intake test, anorectic effect [reference compound]
Effect on food intake during the first hour (C57BI/6 mice): showed an anorectic effect

Now from value to compound, other results behind:

EC50 [1]: 0.75 nM
Compound: CSCC[C@H](NC(=O)[C@H](CC(C)C)NC(=O)[C@H](Cc1c[nH]c2ccccc12)NC(=O)[C@H](CCC(N)=O)NC(=O)[C@@H](NC(=O)[C@H](Cc1ccccc1)NC(=O)[C@H](CC(=O)O)NC(=O)[C@H](CCC(N)=O)NC(=O)[C@H](C)NC(=O)[C@H](C)NC(=O)[C@H](CCCCN)NC(=O)[C@H](CO)NC(=O)[C@H](CC(=O)O)NC(=O)[C@H](CC(C)C)NC(=O)[C@H](Cc1ccc(O)cc1)NC(=O)[C@H](CCCCN)NC(=O)[C@H](CO)NC(=O)[C@H](Cc1ccc(O)cc1)NC(=O)[C@H](CC(=O)O)NC(=O)[C@H](CO)NC(=O)[C@@H](NC(=O)[C@H](Cc1ccccc1)NC(=O)[C@@H](NC(=O)CNC(=O)[C@H](CCC(N)=O)NC(=O)[C@H](CO)NC(=O)[C@@H](N)Cc1c[nH]cn1)[C@@H](C)O)[C@@H](C)O)C(C)C)C(=O)N[C@@H](CC(N)=O)C(=O)N[C@H](C(N)=O)[C@@H](C)O [ZP2667] (H-HSQGTFTSDYSKYLDSKAAQDFVQWLMNT-NH2)
Lipolysis potency relative to OXM ([1]; primary adipocyte cultures): 240 times
Lipolysis potency relative to glucagon ([1]; primary adipocyte cultures): 8 times

EC50 (human GLP-1-R; HEK293 cells expressing human GLP-1-R, cAMP, 15 min at 37° C., read-out: GLP-1R EC50): 0.08 nM
EC50 [1]: 101 nM
Compound: CC(C)C[C@H](NC(=O)[C@H](CCCCN)NC(=O)[C@H](CC(C)C)NC(=O)[C@H](Cc1c[nH]c2ccccc12)NC(=O)[C@H](CCCNC(=N)N)NC(=O)[C@@H](NC(=O)[C@H](Cc1ccccc1)NC(=O)[C@H](CC(=O)O)NC(=O)[C@H](CCCNC(=N)N)NC(=O)[C@H](C)NC(=O)[C@H](C)NC(=O)[C@H](CCCCN)NC(=O)[C@H](CO)NC(=O)[C@H](CC(=O)O)NC(=O)[C@H](CC(C)C)NC(=O)[C@H](Cc1ccc(O)cc1)NC(=O)[C@H](CCCCN)NC(=O)[C@H](CO)NC(=O)[C@H](Cc1ccc(O)cc1)NC(=O)[C@H](CC(=O)O)NC(=O)[C@H](CO)NC(=O)[C@@H](NC(=O)[C@H](Cc1ccccc1)NC(=O)[C@@H](NC(=O)CNC(=O)[C@H](CCC(N)=O)NC(=O)[C@H](CO)NC(=O)[C@@H](N)Cc1c[nH]cn1)[C@@H](C)O)[C@@H](C)O)C(C)C)C(=O)N[C@@H](C)C(N)=O [ZP2668] (H-HSQGTFTSDYSKYLDSKAARDFVRWLKLA-NH2)
Lipolysis potency relative to OXM ([1]; primary adipocyte cultures): in the same order of magnitude as OXM

EC50 [1]: 4.6 nM
Compound: CC(C)C[C@H](NC(=O)[C@H](CC(C)C)NC(=O)[C@H](Cc1c[nH]c2ccccc12)NC(=O)[C@H](CCC(=O)O)NC(=O)[C@@H](NC(=O)[C@H](Cc1ccccc1)NC(=O)[C@H](CC(=O)O)NC(=O)[C@H](Cc1c[nH]cn1)NC(=O)[C@H](C)NC(=O)[C@H](C)NC(=O)[C@H](CCCCN)NC(=O)[C@H](CO)NC(=O)[C@H](CC(=O)O)NC(=O)[C@H](CC(C)C)NC(=O)[C@H](Cc1ccc(O)cc1)NC(=O)[C@H](CCCCN)NC(=O)[C@H](CO)NC(=O)[C@H](Cc1ccc(O)cc1)NC(=O)[C@H](CC(=O)O)NC(=O)[C@H](CO)NC(=O)[C@@H](NC(=O)[C@H](Cc1ccccc1)NC(=O)[C@@H](NC(=O)CNC(=O)[C@H](CCC(N)=O)NC(=O)[C@H](CO)NC(=O)[C@@H](N)Cc1c[nH]cn1)[C@@H](C)O)[C@@H](C)O)C(C)C)C(=O)N[C@@H](CCCNC(=N)N)C(=O)N[C@@H](C)C(N)=O [ZP2669] (H-HSQGTFTSDYSKYLDSKAAHDFVEWLLRA-NH2)
Lipolysis potency relative to OXM ([1]; primary adipocyte cultures): 40 times
Lipolysis potency relative to glucagon ([1]; primary adipocyte cultures): equipotent with glucagon
Improvement of glucose tolerance (db/db mice; 15 min before oral glucose 1 g/kg, AUC0-240 min): 77.1%
Effect on oral glucose tolerance (db/db mice; diabetic db/db mice, result in words): significantly (P<0.01) improved glucose tolerance
Effect on food intake during the first hour (C57BI/6 mice): significantly (P<0.05) decreased food intake
Effect on body weight gain ([2]; 500 nmol/kg b.i.d. s.c., 28 days, high fat diet): decreased body weight gain to a level similar to that observed with chow feeding
Effect on fat deposition ([2]; 4 weeks treatment of DIO mice): significantly decreased fat deposition
Effect on HDL/LDL ratios [3]: significant compared to vehicle; also recorded: significant effect
Effect on blood concentration of LDL cholesterol [3]: significant compared to vehicle; also recorded: significant effect
